Read-outs that look alike come from different tables or passages of the source.
How the values were obtained:
[1] = target: human JAK2 (a.a. 828-1132) (Homo sapiens (Human), UniProt O60674); assay: In vitro JAK kinase assay (HTRF), JAK2; type: biochemical; details: IC50 ratio, 1 mM ATP
[2] = target: human JAK1 (a.a. 837-1142) (Homo sapiens, UniProt P23458); assay: In vitro JAK kinase assay (HTRF), JAK1; type: biochemical
[3] = system: Pfeiffer cells; assay: Western blot analysis of Pfeiffer cells; type: cell-based, human; details: 24 hours
Protocol: The following materials and methods were used in the Western blot analysis infra. Cells (5 million) were lysed in a 300 μl volume of lysis buffer. Soluble fractions were collected by centrifugation. 25 μl of cell lysate were loaded into Tris-Glycine polyacrylamide gels and subjected to electrophoresis. The proteins were transferred into nitrocellulose membrane and probed with antibodies from Cell Signaling Technology for the following proteins: phospho-Stat3 Y705, phospho-Akt 5473, pim1, pim2, pim3, c-myc, phospho-p70S6K, phosho-S6, phospho-Bad S112 and actin.
IL6 and IL10 promote cell survival through the expression of Pim2, which is dependent on JAK1 activity.
Extracts were analyzed by Western blot for pAKT and pSTAT3.

human JAK1 (a.a. 837-1142), sequence (P23458 whole entry, looked up): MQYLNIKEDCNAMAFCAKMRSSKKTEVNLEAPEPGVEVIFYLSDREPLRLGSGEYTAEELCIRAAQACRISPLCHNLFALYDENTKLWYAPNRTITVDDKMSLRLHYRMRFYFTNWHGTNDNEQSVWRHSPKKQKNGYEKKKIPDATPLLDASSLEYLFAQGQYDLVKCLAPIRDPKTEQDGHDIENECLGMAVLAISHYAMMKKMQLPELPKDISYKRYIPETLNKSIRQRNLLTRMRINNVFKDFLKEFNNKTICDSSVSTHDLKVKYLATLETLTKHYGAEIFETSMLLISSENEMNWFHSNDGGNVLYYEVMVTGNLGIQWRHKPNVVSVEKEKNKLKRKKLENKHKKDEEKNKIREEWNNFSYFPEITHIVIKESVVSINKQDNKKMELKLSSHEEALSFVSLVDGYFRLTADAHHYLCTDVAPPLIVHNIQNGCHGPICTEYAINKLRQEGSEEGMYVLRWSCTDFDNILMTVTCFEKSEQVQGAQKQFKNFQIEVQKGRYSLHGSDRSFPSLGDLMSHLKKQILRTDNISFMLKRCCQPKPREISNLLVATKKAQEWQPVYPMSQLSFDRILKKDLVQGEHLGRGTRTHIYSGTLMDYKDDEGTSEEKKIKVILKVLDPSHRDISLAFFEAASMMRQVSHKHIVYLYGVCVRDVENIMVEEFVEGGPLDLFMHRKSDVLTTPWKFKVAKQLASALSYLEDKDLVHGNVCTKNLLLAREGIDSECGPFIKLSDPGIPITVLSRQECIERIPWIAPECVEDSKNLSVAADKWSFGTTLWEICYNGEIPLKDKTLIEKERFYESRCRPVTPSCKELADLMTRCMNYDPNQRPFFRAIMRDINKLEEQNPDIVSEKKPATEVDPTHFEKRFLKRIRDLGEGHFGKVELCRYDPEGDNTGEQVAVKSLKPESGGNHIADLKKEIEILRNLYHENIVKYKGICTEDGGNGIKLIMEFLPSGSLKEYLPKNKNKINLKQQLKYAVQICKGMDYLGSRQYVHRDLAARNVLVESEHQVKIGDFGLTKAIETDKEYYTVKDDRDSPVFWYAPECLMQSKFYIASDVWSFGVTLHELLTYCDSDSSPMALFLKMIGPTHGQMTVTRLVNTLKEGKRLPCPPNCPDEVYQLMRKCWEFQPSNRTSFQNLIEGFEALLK
human JAK2 (a.a. 828-1132), sequence (O60674 828-1132): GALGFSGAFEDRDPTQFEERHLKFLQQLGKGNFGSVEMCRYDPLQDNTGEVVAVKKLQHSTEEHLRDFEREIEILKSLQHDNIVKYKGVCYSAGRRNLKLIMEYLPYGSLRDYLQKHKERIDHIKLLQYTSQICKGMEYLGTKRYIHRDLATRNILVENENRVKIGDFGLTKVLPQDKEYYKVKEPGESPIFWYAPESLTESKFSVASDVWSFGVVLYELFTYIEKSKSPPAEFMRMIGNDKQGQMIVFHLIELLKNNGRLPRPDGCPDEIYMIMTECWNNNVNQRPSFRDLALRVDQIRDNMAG

| Structure (SMILES) | JAK2/JAK1 [1] | IC50 ([2]; 1 mM ATP, read-out: JAK1 IC50) [nM] | IL10-induced expression of Pim2 [3] | IC50 [2] [nM] |
| --- | --- | --- | --- | --- |
| N#CC[C@]1(n2cc(-c3ncnc4[nH]ccc34)cn2)C[C@H](N2CCN(C(=O)c3ccnc(C(F)(F)F)n3)CC2)C1 [Compound 10, [trans-1-[4-(7H-pyrrolo[2,3-d]pyrimidin-4-yl)-1H-pyrazol-1-yl]-3-(4-{[2-(trifluoromethyl)pyrimidin-4-yl]carbonyl}piperazin-1-yl)cyclobutyl]acetonitrile] | >10 | < 10 |  |  |
| N#CCC1(n2cc(-c3ncnc4[nH]ccc34)cn2)CN(C2CCN(C(=O)c3ccnc(C(F)(F)F)c3F)CC2)C1 [Compound 7, {1-{1-[3-Fluoro-2-(trifluoromethyl)isonicotinoyl]piperidin-4-yl}-3-[4-(7H-pyrrolo[2,3-d]pyrimidin-4-yl)-1H-pyrazol-1-yl]azetidin-3-yl}acetonitrile] | >10 | < 10 | blocked |  |
| N#CCC(CN1CCN(C(=O)c2ccc(C#N)cc2F)CC1)n1ccc(-c2ncnc3[nH]ccc23)c1 (stereo not shown) [Compound 6, 4-[(4-{3-cyano-2-[3-(7H-pyrrolo[2,3-d]pyrimidin-4-yl)-1H-pyrrol-1-yl]propyl}piperazin-1-yl)carbonyl]-3-fluorobenzonitrile] | >10 | < 10 |  |  |
| N#CCC(CN1CCN(C(=O)c2ccc(C#N)cc2F)CC1)n1cc(-c2ncnc3[nH]ccc23)cn1 (stereo not shown) [Compound 5, 4-[(4-{3-cyano-2-[4-(7H-pyrrolo[2,3-d]pyrimidin-4-yl)-1H-pyrazol-1-yl]propyl}piperazin-1-yl)carbonyl]-3-fluorobenzonitrile] | >10 | < 10 |  |  |
| N#CC[C@H](C1CCCC1)n1cc(-c2ncnc3[nH]ccc23)cn1 [ruxolitinib, (3R)-3-cyclopentyl-3-[4-(7H-pyrrolo[2,3-d]pyrimidin-4-yl)-1H-pyrazol-1-yl]propanenitrile, reference compound] |  |  | blocked |  |
| N#CCC(C1CCN(c2nc3cccnc3o2)C1)n1cc(-c2ncnc3[nH]ccc23)cn1 (stereo not shown) [Compound 4, 3-(1-[1,3]oxazolo[5,4-b]pyridin-2-ylpyrrolidin-3-yl)-3-[4-(7H-pyrrolo[2,3-d]pyrimidin-4-yl)-1H-pyrazol-1-yl]propanenitrile] | >10 | < 10 |  |  |
| C[C@@H](O)c1nc2cnc3ccsc3c2n1[C@H]1CC[C@H](CC#N)OC1 [Compound 1, ((2R,5S)-5-{2-[(1R)-1-hydroxyethyl]-1H-imidazo[4,5-d]thieno[3,2-b]pyridin-1-yl}tetrahydro-2H-pyran-2-yl)acetonitrile] | >10 | < 100 |  |  |
| N#CCC1(n2cc(-c3ncnc4[nH]ccc34)cn2)CN(C2CCN(C(=O)Nc3ccc(F)cc3C(F)(F)F)CC2)C1 [Compound 8, 4-{3-(cyanomethyl)-3-[4-(7H-pyrrolo[2,3-d]pyrimidin-4-yl)-1H-pyrazol-1-yl]azetidin-1-yl}-N-[4-fluoro-2-(trifluoromethyl)phenyl]piperidine-1-carboxamide] | >10 | < 10 |  |  |
| N#CCC(C1CCN(c2cccc(Cl)n2)C1)n1cc(-c2ncnc3[nH]ccc23)cn1 (single isomer, unassigned) [Compound 3, 3-[1-(6-chloropyridin-2-yl)pyrrolidin-3-yl]-3-[4-(7H-pyrrolo[2,3-d]pyrimidin-4-yl)-1H-pyrazol-1-yl]propanenitrile] | >10 |  |  | < 10 |

Now from value to molecule, other results behind:

| JAK2/JAK1 [1] | IC50 ([2]; 1 mM ATP, read-out: JAK1 IC50) [nM] | Structure (SMILES) | IL10-induced expression of Pim2 [3] | IC50 [2] [nM] |
| --- | --- | --- | --- | --- |
| >10 | < 10 | N#CCC1(n2cc(-c3ncnc4[nH]ccc34)cn2)CN(C2CCN(C(=O)c3ccnc(C(F)(F)F)n3)CC2)C1 [Compound 9, [3-[4-(7H-pyrrolo[2,3-d]pyrimidin-4-yl)-1H-pyrazol-1-yl]-1-(1-{[2-(trifluoromethyl)pyrimidin-4-yl]carbonyl}piperidin-4-yl)azetidin-3-yl]acetonitrile] |  |  |
| >10 | < 10 | N#CCC1(n2cc(-c3ncnc4[nH]ccc34)cn2)CN([C@H]2CC[C@@H](Oc3cc(CCO)nc(C(F)(F)F)n3)CC2)C1 [Compound 18, {1-(cis-4-{[6-(2-hydroxyethyl)-2-(trifluoromethyl)pyrimidin-4-yl]oxy}cyclohexyl)-3-[4-(7H-pyrrolo[2,3-d]pyrimidin-4-yl)-1H-pyrazol-1-yl]azetidin-3-yl}acetonitrile] |  |  |
| >10 | < 10 | N#CC[C@]1(n2cc(-c3ncnc4[nH]ccc34)cn2)C[C@H](N2CCC(Oc3cc(CCO)cc(C(F)(F)F)n3)CC2)C1 [Compound 26, {trans-3-(4-{[4-(2-hydroxyethyl)-6-(trifluoromethyl)pyridin-2-yl]oxy}piperidin-1-yl)-1-[4-(7H-pyrrolo[2,3-d]pyrimidin-4-yl)-1H-pyrazol-1-yl]cyclobutyl}acetonitrile] |  |  |
| >10 | < 10 | N#CC[C@]1(n2cc(-c3ncnc4[nH]ccc34)cn2)C[C@H](N2CCC(Oc3cc(CN4CCC[C@@H]4CO)cc(C(F)(F)F)n3)CC2)C1 [Compound 13, {trans-3-(4-{[4-{[(2R)-2-(hydroxymethyl)pyrrolidin-1-yl]methyl}-6-(trifluoromethyl)pyridin-2-yl]oxy}piperidin-1-yl)-1-[4-(7H-pyrrolo[2,3-d]pyrimidin-4-yl)-1H-pyrazol-1-yl]cyclobutyl}acetonitrile] |  |  |
| >10 | < 10 | C[C@H](O)CNCc1cc(OC2CCN([C@H]3C[C@](CC#N)(n4cc(-c5ncnc6[nH]ccc56)cn4)C3)CC2)nc(C(F)(F)F)c1 [Compound 25, {trans-3-(4-{[4-({[(2S)-2-hydroxypropyl]amino}methyl)-6-(trifluoromethyl)pyridin-2-yl]oxy}piperidin-1-yl)-1-[4-(7H-pyrrolo[2,3-d]pyrimidin-4-yl)-1H-pyrazol-1-yl]cyclobutyl}acetonitrile] |  |  |
| >10 | < 10 | N#CCC1(n2cc(-c3ncnc4[nH]ccc34)cn2)CN([C@H]2CC[C@@H](Oc3cc(CN4CC[C@H](O)C4)cc(C(F)(F)F)n3)CC2)C1 [Compound 22, {1-(cis-4-{[4-{[(3S)-3-hydroxypyrrolidin-1-yl]methyl}-6-(trifluoromethyl)pyridin-2-yl]oxy}cyclohexyl)-3-[4-(7H-pyrrolo[2,3-d]pyrimidin-4-yl)-1H-pyrazol-1-yl]azetidin-3-yl}acetonitrile] |  |  |
| >10 | < 10 | N#CC[C@]1(n2cc(-c3ncnc4[nH]ccc34)cn2)C[C@H](N2CCC(Oc3cc(CN4CCC[C@H]4CO)cc(C(F)(F)F)n3)CC2)C1 [Compound 12, {trans-3-(4-{[4-{[(2S)-2-(hydroxymethyl)pyrrolidin-1-yl]methyl}-6-(trifluoromethyl)pyridin-2-yl]oxy}piperidin-1-yl)-1-[4-(7H-pyrrolo[2,3-d]pyrimidin-4-yl)-1H-pyrazol-1-yl]cyclobutyl}acetonitrile] |  |  |
| >10 | < 10 | CCNCc1cc(O[C@H]2CC[C@@H](N3CC(CC#N)(n4cc(-c5ncnc6[nH]ccc56)cn4)C3)CC2)nc(C(F)(F)F)c1 [Compound 19, {1-(cis-4-{[4-[(ethylamino)methyl]-6-(trifluoromethyl)pyridin-2-yl]oxy}cyclohexyl)-3-[4-(7H-pyrrolo[2,3-d]pyrimidin-4-yl)-1H-pyrazol-1-yl]azetidin-3-yl}acetonitrile] |  |  |
| >10 | < 10 | N#CCC1(n2cc(-c3ncnc4[nH]ccc34)cn2)CN([C@H]2CC[C@@H](Oc3cc(CN4CC[C@@H](O)C4)cc(C(F)(F)F)n3)CC2)C1 [Compound 21, {1-(cis-4-{[4-{[(3R)-3-hydroxypyrrolidin-1-yl]methyl}-6-(trifluoromethyl)pyridin-2-yl]oxy}cyclohexyl)-3-[4-(7H-pyrrolo[2,3-d]pyrimidin-4-yl)-1H-pyrazol-1-yl]azetidin-3-yl}acetonitrile] |  |  |
| >10 | < 10 | C[C@@H](O)CNCc1cc(OC2CCN([C@H]3C[C@](CC#N)(n4cc(-c5ncnc6[nH]ccc56)cn4)C3)CC2)nc(C(F)(F)F)c1 [Compound 24, {trans-3-(4-{[4-({[(2R)-2-hydroxypropyl]amino}methyl)-6-(trifluoromethyl)pyridin-2-yl]oxy}piperidin-1-yl)-1-[4-(7H-pyrrolo[2,3-d]pyrimidin-4-yl)-1H-pyrazol-1-yl]cyclobutyl}acetonitrile] |  |  |
|  | < 10 | N#CC[C@]1(n2cc(-c3ncnc4[nH]ccc34)cn2)C[C@H](N2CCC(Oc3cc(CN4CC(O)C4)cc(C(F)(F)F)n3)CC2)C1 [Compound 11, {trans-3-(4-{[4-[(3-hydroxyazetidin-1-yl)methyl]-6-(trifluoromethyl)pyridin-2-yl]oxy}piperidin-1-yl)-1-[4-(7H-pyrrolo[2,3-d]pyrimidin-4-yl)-1H-pyrazol-1-yl]cyclobutyl}acetonitrile] |  |  |
| >10 | < 10 | C[C@@H](CO)NCc1cc(OC2CCN([C@H]3C[C@](CC#N)(n4cc(-c5ncnc6[nH]ccc56)cn4)C3)CC2)nc(C(F)(F)F)c1 [Compound 23, {trans-3-(4-{[4-({[(1S)-2-hydroxy-1-methylethyl]amino}methyl)-6-(trifluoromethyl)pyridin-2-yl]oxy}piperidin-1-yl)-1-[4-(7H-pyrrolo[2,3-d]pyrimidin-4-yl)-1H-pyrazol-1-yl]cyclobutyl}acetonitrile] |  |  |
| >10 | < 10 | CC(C)(O)c1cc(O[C@H]2CC[C@@H](N3CC(CC#N)(n4cc(-c5ncnc6[nH]ccc56)cn4)C3)CC2)nc(C(F)(F)F)c1 [Compound 20, {1-(cis-4-{[4-(1-hydroxy-1-methylethyl)-6-(trifluoromethyl)pyridin-2-yl]oxy}cyclohexyl)-3-[4-(7H-pyrrolo[2,3-d]pyrimidin-4-yl)-1H-pyrazol-1-yl]azetidin-3-yl}acetonitrile] |  |  |

Source: patent publication US10675284B2, “Treatment of B-cell malignancies by a combination JAK and PI3K inhibitors” (Incyte Corporation, priority 2014, dated 2020)
